Data on twelve molecules can be found in US6316410A, “Parathyroid hormone analogues for the treatment of osteoporosis” (National Research Council of Canada, priority 1999, dated 2001).

Assay [1] concerns adenylyl cyclase of ROS 17/2 cells. The class given is cell-based, rat. The source says: Adenylyl cyclase activities of 4- to 5-day cultures of ROS 17/2 cells in 24-well plates were estimated from the rate of formation of [^3 H]-cAMF from the cellular ATP pool, which had been labelled with [^3 H]-adenine before exposure to hPTH or its analogues in accordance with Jouishomme, H. Whitfield, J. F.; Gagnon, L.; Maclean, S.; Isaacs, R.; Chakravarthy, B.; Durkin, J.; Neugebauer, W.; Willick, G.; Rixon, R. H. Further Definition of the Protein Kinase C Activation Domain of the Parathyroid Hormone. J. Bone Miner. Res. 1994, 9, 943-949.

The next assay relates to ovariectomized rat model. The settings on record: ovariectomized rats, literature; cited from earlier work.
Assay [2] has as its system ovariectomized (OVX) rats. Description: Growth of trabeculae in the distal femurs of ovariectomized (OVX) rats, injections week 9 to 15 after OVX. The settings on record: 5 nmoles/100 g of body weight s.c. daily, FIG. 8, in words. The class given is in vivo. The source says: Rats were OVXed (OVX) or sham-OVXed (sham) and given daily subcutaneous injections of vehicle between the end of the 9th week and the end of the 15th week after OVX. Injection quantities were 5 nmoles/100 g of body weight. OVXed rats received daily subcutaneous injections of: vehicle (OVX), hPTH(1-31)NH2, 5 nmol (linear), [Leu^27 ]cyclo(Glu^22 -Lys^26)hPTH(1-28)NH2, 5 nmol (cyclic), or [Glu^17,Leu^27]cyclo(Lys^13 -Glu^17,Glu^22 Lys^26)hPTH(1-31)NH2, 5nmol(double cyclic). The femurs were demineralized and stained with Sanderson's rapid bone stain. […] This improvement is not correlated with their relative AC-stimulating activities, but likely results from greater stability to proteolytic attack and greater ability to be transported from the site of injection.

Setting [3] is: ROS 17/2 cells, concentration required to obtain half-maximal activity.

Entries after “also recorded” stand apart in the source; their conditions may differ. Read-outs that look alike come from different tables or passages of the source. Positions of bridges follow the written chain, without caps; N, C: chain ends. No end group written: not given here.

On to “SVSEIQLMHNLGKHLNSMERVEWLRKKL-NH2 [hPTH(1-28)NH2, reference compound]”, for which, in assay [1], the “AC-Stimulation (ED50%, nM)” value is listed as 24 nM. Same read-out and setting: with “SVSEIQLMHNLGKHLNSMERVEWLRKKLQ-NH2 [hPTH(1-29)NH2, reference compound]” the figure was 24 nM.

In the case of “Ser Val Ser Glu Ile Gln Leu Met His Asn Leu Gly Lys His Leu Asn Ser Met Glu Arg Val Glu Trp Leu Arg Lys Lys Leu Gin Asp Val-NH2 (SVSEIQLMHNLGKHLNSMERVEWLRKKLQDV-NH2) [hPTH-(1-31)-NH2, linear human parathyroid hormone fragment 1-31 amide]”, the “anabolic activity / restoration of bone loss” value in the assay on ovariectomized rat model is given as “fully active in the restoration of bone loss”.

In the case of “[Glu^17, Leu^27 ]cyclo(Lys^13 -Glu^17, Glu^22 -Lys^26)-hPTH-(1-31)-NH2 (SVSEIQLMHNLGKHLNEMERVEWLRKLLQDV-NH2; lactam 13-17, 22-26; N-terminus assumed; SMILES CC[C@H](C)[C@H](NC(=O)[C@H](CCC(=O)O)NC(=O)[C@H](CO)NC(=O)[C@@H](NC(=O)[C@@H](N)CO)C(C)C)C(=O)N[C@@H](CCC(N)=O)C(=O)N[C@@H](CC(C)C)C(=O)N[C@@H](CCSC)C(=O)N[C@@H](Cc1c[nH]cn1)C(=O)N[C@@H](CC(N)=O)C(=O)N[C@@H](CC(C)C)C(=O)NCC(=O)N[C@H]1CCCCNC(=O)CC[C@@H](C(=O)N[C@@H](CCSC)C(=O)N[C@@H](CCC(=O)O)C(=O)N[C@@H](CCCNC(=N)N)C(=O)N[C@H](C(=O)N[C@H]2CCC(=O)NCCCC[C@@H](C(=O)N[C@@H](CC(C)C)C(=O)N[C@@H](CC(C)C)C(=O)N[C@@H](CCC(N)=O)C(=O)N[C@@H](CC(=O)O)C(=O)N[C@H](C(N)=O)C(C)C)NC(=O)[C@H](CCCNC(=N)N)NC(=O)[C@H](CC(C)C)NC(=O)[C@H](Cc3c[nH]c4ccccc34)NC2=O)C(C)C)NC(=O)[C@H](CC(N)=O)NC(=O)[C@H](CC(C)C)NC(=O)[C@H](Cc2c[nH]cn2)NC1=O) [double cyclic (13-17 and 22-26 lactams) hPTH 1-31 amide analogue]”, in assay [1] (setting [3]), the “AC-Stimulation (ED50%, nM)” value worked out at 13.2 nM. Moreover, the “increasing the thickness of the remaining trabeculae” value in assay [2] was “better than its monocyclic counterpart; also recorded: significantly better than the linear molecule”.

With “[Leu^27 ]cyclo(Glu^22 -Lys^26)-hPTH-(1-28)-NH2 (SVSEIQLMHNLGKHLNSMERVEWLRKLL-NH2; lactam 22-26; N-terminus assumed; SMILES CC[C@H](C)[C@H](NC(=O)[C@H](CCC(=O)O)NC(=O)[C@H](CO)NC(=O)[C@@H](NC(=O)[C@@H](N)CO)C(C)C)C(=O)N[C@@H](CCC(N)=O)C(=O)N[C@@H](CC(C)C)C(=O)N[C@@H](CCSC)C(=O)N[C@@H](Cc1c[nH]cn1)C(=O)N[C@@H](CC(N)=O)C(=O)N[C@@H](CC(C)C)C(=O)NCC(=O)N[C@@H](CCCCN)C(=O)N[C@@H](Cc1c[nH]cn1)C(=O)N[C@@H](CC(C)C)C(=O)N[C@@H](CC(N)=O)C(=O)N[C@@H](CO)C(=O)N[C@@H](CCSC)C(=O)N[C@@H](CCC(=O)O)C(=O)N[C@@H](CCCNC(=N)N)C(=O)N[C@H](C(=O)N[C@H]1CCC(=O)NCCCC[C@@H](C(=O)N[C@@H](CC(C)C)C(=O)N[C@@H](CC(C)C)C(N)=O)NC(=O)[C@H](CCCNC(=N)N)NC(=O)[C@H](CC(C)C)NC(=O)[C@H](Cc2c[nH]c3ccccc23)NC1=O)C(C)C) [[Leu^27]c(Glu^22 -Lys^26)hPTH(1-28)NH2, 22-26 lactam cyclic analogue of human parathyroid hormone 1-28 amide with Leu27]”, the “AC-Stimulation (ED50%, nM)” value in assay [1] (setting [3]) is reported as 9.6 nM. Still for that read-out and setting: under “[Leu^27 ]cyclo(Glu^22 -Lys^26)-hPTH-(1-29)-NH2 (SVSEIQLMHNLGKHLNSMERVEWLRKLLQ-NH2; lactam 22-26; N-terminus assumed; SMILES CC[C@H](C)[C@H](NC(=O)[C@H](CCC(=O)O)NC(=O)[C@H](CO)NC(=O)[C@@H](NC(=O)[C@@H](N)CO)C(C)C)C(=O)N[C@@H](CCC(N)=O)C(=O)N[C@@H](CC(C)C)C(=O)N[C@@H](CCSC)C(=O)N[C@@H](Cc1c[nH]cn1)C(=O)N[C@@H](CC(N)=O)C(=O)N[C@@H](CC(C)C)C(=O)NCC(=O)N[C@@H](CCCCN)C(=O)N[C@@H](Cc1c[nH]cn1)C(=O)N[C@@H](CC(C)C)C(=O)N[C@@H](CC(N)=O)C(=O)N[C@@H](CO)C(=O)N[C@@H](CCSC)C(=O)N[C@@H](CCC(=O)O)C(=O)N[C@@H](CCCNC(=N)N)C(=O)N[C@H](C(=O)N[C@H]1CCC(=O)NCCCC[C@@H](C(=O)N[C@@H](CC(C)C)C(=O)N[C@@H](CC(C)C)C(=O)N[C@@H](CCC(N)=O)C(N)=O)NC(=O)[C@H](CCCNC(=N)N)NC(=O)[C@H](CC(C)C)NC(=O)[C@H](Cc2c[nH]c3ccccc23)NC1=O)C(C)C) [[Leu^27]c(Glu^22 -Lys^26)hPTH(1-29)NH2, 22-26 lactam cyclic analogue of human parathyroid hormone 1-29 amide with Leu27]” stands 8.4 nM. For the molecule “hPTH(1-30)NH2 (SVSEIQLMHNLGKHLNSMERVEWLRKKLQD-NH2; UniProt P01270 32-61, looked up, fragment) [linear human parathyroid hormone fragment 1-30 amide]”, the “anabolic activity / restoration of bone loss” value with ovariectomized rat model was “only with much higher doses than used with the (1-31) analogue”.

B1: hPTH(1-28)NH2 (peptide)
peptide: SVSEIQLMHNLGKHLNSMERVEWLRKKL-NH2
As for B1, in the assay with PTH receptor, the AC-Stimulation (ED50%, nM) was determined as 24 nM.

B2: [Glu^17, Leu^27]cyclo(Lys^13-Glu^17, Glu^22-Lys^26)-hPTH-(1-31)-NH2 (peptide)
peptide: SVSEIQLMHNLGKHLNEMERVEWLRKLLQDV-NH2
modifications: lactam 13-17, 22-26; N-terminus assumed
SMILES: CC[C@H](C)[C@H](NC(=O)[C@H](CCC(=O)O)NC(=O)[C@H](CO)NC(=O)[C@@H](NC(=O)[C@@H](N)CO)C(C)C)C(=O)N[C@@H](CCC(N)=O)C(=O)N[C@@H](CC(C)C)C(=O)N[C@@H](CCSC)C(=O)N[C@@H](Cc1c[nH]cn1)C(=O)N[C@@H](CC(N)=O)C(=O)N[C@@H](CC(C)C)C(=O)NCC(=O)N[C@H]1CCCCNC(=O)CC[C@@H](C(=O)N[C@@H](CCSC)C(=O)N[C@@H](CCC(=O)O)C(=O)N[C@@H](CCCNC(=N)N)C(=O)N[C@H](C(=O)N[C@H]2CCC(=O)NCCCC[C@@H](C(=O)N[C@@H](CC(C)C)C(=O)N[C@@H](CC(C)C)C(=O)N[C@@H](CCC(N)=O)C(=O)N[C@@H](CC(=O)O)C(=O)N[C@H](C(N)=O)C(C)C)NC(=O)[C@H](CCCNC(=N)N)NC(=O)[C@H](CC(C)C)NC(=O)[C@H](Cc3c[nH]c4ccccc34)NC2=O)C(C)C)NC(=O)[C@H](CC(N)=O)NC(=O)[C@H](CC(C)C)NC(=O)[C@H](Cc2c[nH]cn2)NC1=O
In the assay with PTH receptor, B2 showed an AC-Stimulation (ED50%, nM) of 13.2 nM.

B3: [Leu^27]cyclo(Glu^22-Lys^26)-hPTH-(1-29)-NH2 (peptide)
peptide: SVSEIQLMHNLGKHLNSMERVEWLRKLLQ-NH2
modifications: lactam 22-26; N-terminus assumed
SMILES: CC[C@H](C)[C@H](NC(=O)[C@H](CCC(=O)O)NC(=O)[C@H](CO)NC(=O)[C@@H](NC(=O)[C@@H](N)CO)C(C)C)C(=O)N[C@@H](CCC(N)=O)C(=O)N[C@@H](CC(C)C)C(=O)N[C@@H](CCSC)C(=O)N[C@@H](Cc1c[nH]cn1)C(=O)N[C@@H](CC(N)=O)C(=O)N[C@@H](CC(C)C)C(=O)NCC(=O)N[C@@H](CCCCN)C(=O)N[C@@H](Cc1c[nH]cn1)C(=O)N[C@@H](CC(C)C)C(=O)N[C@@H](CC(N)=O)C(=O)N[C@@H](CO)C(=O)N[C@@H](CCSC)C(=O)N[C@@H](CCC(=O)O)C(=O)N[C@@H](CCCNC(=N)N)C(=O)N[C@H](C(=O)N[C@H]1CCC(=O)NCCCC[C@@H](C(=O)N[C@@H](CC(C)C)C(=O)N[C@@H](CC(C)C)C(=O)N[C@@H](CCC(N)=O)C(N)=O)NC(=O)[C@H](CCCNC(=N)N)NC(=O)[C@H](CC(C)C)NC(=O)[C@H](Cc2c[nH]c3ccccc23)NC1=O)C(C)C
Regarding B3, in the assay with PTH receptor, the AC-Stimulation (ED50%, nM) is 8.4 nM.

B4: hPTH(1-29)NH2 (peptide)
peptide: SVSEIQLMHNLGKHLNSMERVEWLRKKLQ-NH2
In the assay with PTH receptor, B4 yielded an AC-Stimulation (ED50%, nM) of 24 nM.

B5: [Leu^27]cyclo(Glu^22-Lys^26)-hPTH-(1-28)-NH2 (peptide)
peptide: SVSEIQLMHNLGKHLNSMERVEWLRKLL-NH2
modifications: lactam 22-26; N-terminus assumed
SMILES: CC[C@H](C)[C@H](NC(=O)[C@H](CCC(=O)O)NC(=O)[C@H](CO)NC(=O)[C@@H](NC(=O)[C@@H](N)CO)C(C)C)C(=O)N[C@@H](CCC(N)=O)C(=O)N[C@@H](CC(C)C)C(=O)N[C@@H](CCSC)C(=O)N[C@@H](Cc1c[nH]cn1)C(=O)N[C@@H](CC(N)=O)C(=O)N[C@@H](CC(C)C)C(=O)NCC(=O)N[C@@H](CCCCN)C(=O)N[C@@H](Cc1c[nH]cn1)C(=O)N[C@@H](CC(C)C)C(=O)N[C@@H](CC(N)=O)C(=O)N[C@@H](CO)C(=O)N[C@@H](CCSC)C(=O)N[C@@H](CCC(=O)O)C(=O)N[C@@H](CCCNC(=N)N)C(=O)N[C@H](C(=O)N[C@H]1CCC(=O)NCCCC[C@@H](C(=O)N[C@@H](CC(C)C)C(=O)N[C@@H](CC(C)C)C(N)=O)NC(=O)[C@H](CCCNC(=N)N)NC(=O)[C@H](CC(C)C)NC(=O)[C@H](Cc2c[nH]c3ccccc23)NC1=O)C(C)C
B5: the AC-Stimulation (ED50%, nM) in the assay with PTH receptor stood at 9.6 nM.
